From US20120041195A1, “Heterocyclic compounds” (FOVEA PHARMACEUTICALS, priority 2009, published 2012)

Assays:
[1] = Solubility in aqueous medium (buffer pH 5); format: physicochemical; settings: acetic acid/KOH buffer pH 5, stirred 24 h at room temperature, HPLC/UV of supernatant
Experimental: Solubility of Compounds was determined in aqueous medium using the following procedure.
Two mg of Compound (2 mg) was added to 200 μl buffer (acetic acid/KOH) solution at pH 5. Solution was then stirred for 24 h at room temperature and then centrifuged 10 min at 16,000 rpm. Corresponding supernatants were analyzed by HPLC and UV detection. Calculation of a given Compound concentration was performed by reporting area under the experimental slope onto a calibration slope obtained separately using DMSO-solubilised Compound at different concentrations.

[2] = Colour of compound; format: physicochemical
[3] = system: VEGF-induced blood-retinal barrier breakdown; assay: Inhibition of vascular leakage in a rat model of blood-retinal barrier breakdown; format: in vivo; settings: intravitreal VEGF164 100 ng, 0.58% (5.8 mg/ml buffer pH 5) topical 10 μl six times over 27 h, Evans blue in retina
Experimental: We investigated the efficacy of topical administration of compound 5 of the invention in reducing the retinal leakage in a VEGF-induced blood-retinal barrier breakdown in the rat. Rats were treated by a single intravitreal injection of 5 μl (100 ng) recombinant rat VEGF164 (RD systems) into each eye.
During twenty-seven hours following VEGF injection, 0.58% test compound 5 of the invention (5.8 mg/ml buffer pH 5) and control without compound of the invention were administered six times by topical administration (10 μl) in eyes of sixteen rats.
Twenty-seven hours after the VEGF challenge, Evans blue dye (45 mg/kg) was injected intravenously and the dye was allowed to circulate during two hours.
Then, each rat was infused with 0.05M citrate buffer pH 3.5 (37° C.) for 2 minutes to allow clearance of the dye. Immediately after said perfusion, both eyes were enucleated and Evans blue dye was extracted by incubating each retina in formamide (Qaum et al Invest. Ophthalmol. Vis. Sci. 2001, Vol 42, No 10). Afterward, the absorbance was measured with a spectrophotometer at 620 nm.
Breakdown of the blood-retinal barrier was proportional to the concentration of Evans blue in the retina normalized by Evans blue concentrations in the plasma.

Soiubility (pH 5) in mg/ml [1] | Solubility (pH 5) in % [1] | Colour [2] | Structure (SMILES) | reduction of vascular leakage compared to control [3]
0.2 mg/ml | 0.02% | Colourless | Oc1ccc(Cl)c(-c2ccc3nc(Nc4cccc(OCCN5CCOCC5)c4)nn3c2)c1 [compound 12, 4-Chloro-3-{2-[3-(2-morpholin-4-yl-ethoxy)-phenylamino]-[1,2,4]triazolo[1,5-a]pyridin-6-yl}-phenol] | 
1 mg/ml | 0.1% | Colourless | Cc1cc(-c2cc(O)ccc2Cl)cn2nc(Nc3ccc(OCCN4CCCC4)cc3)nc12.Cl [compound 9, 4-Chloro-3-{8-methyl-2-[4-(2-pyrrolidin-1-yl-ethoxy)-phenylamino]-[1,2,4]triazolo[1,5-a]pyridin-6-yl}-phenol, hydrochloride] | 
0.22 mg/ml | 0.022% | Colourless | O=C1N(CCN2CCCC2)CCN1c1ccc(Nc2nc3ccc(-c4cc(O)ccc4Cl)cn3n2)cc1 [compound 7, 1-{4-[6-(2-Chloro-5-hydroxy-phenyl)-[1,2,4]triazolo[1,5-a]pyridin-2-ylamino]-phenyl}-3-(2-pyrrolidin-1-yl-ethyl)-imidazolidin-2-one] | 
0.7 mg/ml | 0.07% | Colourless | CN(C)CCOc1cccc(Nc2nc3ccc(-c4cc(O)ccc4Cl)cn3n2)c1 [compound 15, 4-Chloro-3-{2-[3-(2-dimethylamino-ethoxy)-phenylamino]-[1,2,4]triazolo[1,5-a]pyridin-6-yl}-phenol] | 
>10 mg/ml | >1% | Colourless | CN(C)CCOc1ccc(Nc2nc3ccc(-c4cc(O)ccc4Cl)cn3n2)cc1 [compound 14, 4-Chloro-3-{2-[4-(2-dimethylamino-ethoxy)-phenylamino]-[1,2,4]triazolo[1,5-a]pyridin-6-yl}-phenol] | 
2 mg/ml | 0.2% | Colourless | Cl.Oc1ccc(Cl)c(-c2ccn3nc(Nc4ccc(OCCN5CCCC5)cc4)nc3c2)c1 [compound 10, 4-Chloro-3-{2-[4-(2-pyrrolidin-1-yl-ethoxy)-phenylamino]-[1,2,4]triazolo[1,5-a]pyridin-7-yl}-phenol, hydrochloride] | 
5.4 mg/ml | 0.3% | Colourless | Cl.Oc1ccc(Cl)c(-c2ccc3nc(Nc4ccc(OCCN5CCCC5)cc4)nn3c2)c1 [compound 5, 4-Chloro-3-{2-[4-(2-pyrrolidin-1-yl-ethoxy)-phenylamino]-[1,2,4]triazolo[1,5-a]pyridin-6-yl}-phenol, hydrochloride] | 71%
0.1 mg/ml | 0.01% | Colourless | Oc1ccc(Cl)c(-c2ccc3nc(Nc4cccc(OCCN5CCCC5)c4)nn3c2)c1 [compound 16, 4-Chloro-3-{2-[3-(2-pyrrolidin-1-yl-ethoxy)-phenylamino]-[1,2,4]triazolo[1,5-a]pyridin-6-yl}-phenol] | 

Structure (SMILES) | Soiubility (pH 5) in mg/ml [1] | Solubility (pH 5) in % [1] | Colour [2] | reduction of vascular leakage compared to control [3]
CN(C)[C@@H]1CCN(C(=O)COc2ccc(Nc3nc4ccc(-c5cc(O)ccc5Cl)cn4n3)cc2)C1.Cl [compound 6, 2-{4-[6-(2-Chloro-5-hydroxy-phenyl)-[1,2,4]triazolo[1,5-a]pyridin-2-ylamino]-phenoxy}-1-((R)-3-dimethylamino-pyrrolidin-1-yl)-ethanone, hydrochloride] | 0.9 mg/ml | 0.1% | Colourless | 
